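Here, GI50 denotes the concentration required for 50% inhibition of growth. TGI: concentration producing complete growth inhibition.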
What was measured:
Test in all cases: DTP human tumour cell line panel, 384-well format
[1] = test system: SNB-75 CNS
[2] = test system: MDA-MB-435 melanoma
[3] = test system: A498 renal
[4] = test system: SF-539 CNS
[5] = test system: A549 NSCLC
[6] = test system: CAKI-1 renal
[7] = test system: MDA-MB-231 breast
[8] = test system: MDA-MB-468 breast
[9] = test system: OVCAR-8 ovarian
[10] = test system: HCT-15 colon
[11] = test system: HL-60(TB) leukemia
[12] = test system: SR leukemia
[13] = test system: TK-10 renal
[14] = test system: SNB-19 CNS
[15] = test system: HS 578T breast
[16] = test system: MOLT-4 leukemia
[17] = test system: T-47D breast
[18] = test system: SK-OV-3 ovarian
[19] = test system: NCI/ADR-RES ovarian
[20] = test system: RPMI-8226 leukemia
[21] = test system: ACHN renal
[22] = test system: SW-620 colon
[23] = test system: HT29 colon
[24] = test system: OVCAR-4 ovarian
[25] = test system: OVCAR-5 ovarian
[26] = test system: HOP-92 NSCLC
[27] = test system: M14 melanoma
[28] = test system: SK-MEL-5 melanoma
[29] = test system: SN12C renal

`Cc1cc(N2CCOCC2)cc2[nH]c(-c3c(NC[C@@H](O)c4cccc(Cl)c4)cc[nH]c3=O)nc12` gave a GI50 [1] of 1.84 µM, a TGI [1] of 3.59 µM and a GI50 [2] of 0.691 µM. It also gave a TGI [2] of 3.56 µM, a GI50 [3] of 2.19 µM and a TGI [3] of 4.84 µM. It also gave a GI50 [4] of 1.52 µM, a TGI [4] of 2.92 µM and a GI50 [5] of 1.54 µM. For the same molecule, the TGI [5] was 5.24 µM, the GI50 [6] was 1.77 µM and the TGI [6] was 4.29 µM. The GI50 [7] was 2.03 µM, the TGI [7] was 10.4 µM and the GI50 [8] was 2.23 µM. For the same molecule, the TGI [8] was 4.73 µM, the GI50 [9] was 3.29 µM and the TGI [9] was 11.1 µM. For the same molecule, the GI50 [10] was 1.96 µM, the TGI [10] was 10.1 µM and the GI50 [11] was 0.0856 µM. The TGI [11] was 1.1 µM, the GI50 [12] was 1.15 µM and the TGI [12] was 2.39 µM. It also gave a GI50 [13] of 1.76 µM, a TGI [13] of 4.73 µM and a GI50 [14] of 2.79 µM. For the same molecule, the TGI [14] was 8.23 µM, the GI50 [15] was 1.5 µM and the TGI [15] was 3.07 µM. For the same molecule, the GI50 [16] was 1.15 µM, the TGI [16] was 2.5 µM and the GI50 [17] was 3.84 µM. The TGI [17] was 16.2 µM, the GI50 [18] was 1.63 µM and the TGI [18] was 5.78 µM. For the same molecule, the GI50 [19] was 3.28 µM, the TGI [19] was 11.1 µM and the GI50 [20] was 1.56 µM. It also gave a TGI [20] of 3.13 µM, a GI50 [21] of 1.51 µM and a TGI [21] of 9.76 µM. It also gave a GI50 [22] of 1.76 µM, a TGI [22] of 11.3 µM and a GI50 [23] of 0.203 µM. For the same molecule, the TGI [23] was 1.64 µM, the GI50 [24] was 1.83 µM and the TGI [24] was 6.99 µM. It also gave a GI50 [25] of 0.831 µM, a TGI [25] of 4.47 µM and a GI50 [26] of 0.477 µM. For the same molecule, the TGI [26] was 1.92 µM, the GI50 [27] was 0.735 µM and the TGI [27] was 5.44 µM. The GI50 [28] was 1.32 µM, the TGI [28] was 4.14 µM and the GI50 [29] was 0.715 µM. The TGI [29] was 2.42 µM.

— PubChem BioAssay (NCI)
